In patent US20240115745A1, “COMPOUNDS COMPRISING A FIBROBLAST ACTIVATION PROTEIN LIGAND AND USE THEREOF” (3B PHARMACEUTICALS GMBH, priority 2021, published 2024):
pIC50: −log10 of the molar value. Read-outs that look alike come from different tables or passages of the source. *1 amine or outer side, *2 acyl side, *3 side chain or, on linkers, in order; H or OH if unused. Where a SMILES comes first, the peptide text is derived from it. Bridges are numbered along the chain shown (N, C = ends). [ ]: non-standard residue; d: D form. The star is where a group is joined. X11 = O=C(O)CN1CCN(CC(=O)O)CCN([C@H](CCC(=O)*)C(=O)O)CC1; X2 = O=C1NC(=O)C([*:3])=C1CC[C@H](N[*:1])C(=O)[*:2]; X3 = NCCNCC(CNCCN)C(=O)*; Hexanoyl = CCCCCC(=O)*

Columns and labels:
Recombinant human FAP = target: T1, Recombinant human FAP (Homo sapiens, UniProt Q12884); assay: FRET-based FAP protease activity assay; type: biochemical; conditions: for IC50: recombinant human FAP, FRET-peptide substrate, 37° C., read-out: pIC50 Category (Activity) (converted)
T1 construct: purchased R&D systems 3715-SE

[1] = target: T2, FAP-expressing human WI-38 fibroblasts (Homo sapiens, UniProt Q12884); assay: Competitive FACS binding assay; conditions: for IC50: competition with 3 nM Cy5-labeled compound, WI-38 fibroblasts, 4° C., 1 hour, read-out: pIC50 Category (FACS) (converted);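 for all read-outs here: flow cytometry read-out of median Cy5 fluorescence on the cells, plotted versus test compound concentration, with IC50 derived by four-parameter logistic curve fitting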
T2 construct: FAP-expressing human WI-38 fibroblasts (ECACC) were cultured in EMEM; host or cells: WI-38 human fibroblasts
T2 sequence (Q12884 whole entry): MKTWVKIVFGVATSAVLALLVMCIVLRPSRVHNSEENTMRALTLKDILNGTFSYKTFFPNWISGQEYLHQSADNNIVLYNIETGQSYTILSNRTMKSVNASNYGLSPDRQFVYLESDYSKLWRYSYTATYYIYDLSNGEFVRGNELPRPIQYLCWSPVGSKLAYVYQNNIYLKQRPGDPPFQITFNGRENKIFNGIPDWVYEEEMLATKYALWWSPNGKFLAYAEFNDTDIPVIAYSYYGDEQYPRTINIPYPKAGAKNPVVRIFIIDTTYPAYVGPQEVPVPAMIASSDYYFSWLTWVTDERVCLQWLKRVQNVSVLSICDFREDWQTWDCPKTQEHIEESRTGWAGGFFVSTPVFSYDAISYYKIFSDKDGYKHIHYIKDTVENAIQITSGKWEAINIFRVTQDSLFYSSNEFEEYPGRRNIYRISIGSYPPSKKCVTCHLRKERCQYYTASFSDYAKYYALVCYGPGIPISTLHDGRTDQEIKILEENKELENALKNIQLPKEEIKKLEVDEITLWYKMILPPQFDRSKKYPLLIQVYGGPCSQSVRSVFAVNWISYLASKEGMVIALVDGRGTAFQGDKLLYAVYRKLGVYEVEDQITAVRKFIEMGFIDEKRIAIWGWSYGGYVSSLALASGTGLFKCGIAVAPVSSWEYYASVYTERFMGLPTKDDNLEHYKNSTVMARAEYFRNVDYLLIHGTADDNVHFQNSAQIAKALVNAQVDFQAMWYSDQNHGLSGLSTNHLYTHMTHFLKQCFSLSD

T1 sequence (Q12884 26-760 limits assumed): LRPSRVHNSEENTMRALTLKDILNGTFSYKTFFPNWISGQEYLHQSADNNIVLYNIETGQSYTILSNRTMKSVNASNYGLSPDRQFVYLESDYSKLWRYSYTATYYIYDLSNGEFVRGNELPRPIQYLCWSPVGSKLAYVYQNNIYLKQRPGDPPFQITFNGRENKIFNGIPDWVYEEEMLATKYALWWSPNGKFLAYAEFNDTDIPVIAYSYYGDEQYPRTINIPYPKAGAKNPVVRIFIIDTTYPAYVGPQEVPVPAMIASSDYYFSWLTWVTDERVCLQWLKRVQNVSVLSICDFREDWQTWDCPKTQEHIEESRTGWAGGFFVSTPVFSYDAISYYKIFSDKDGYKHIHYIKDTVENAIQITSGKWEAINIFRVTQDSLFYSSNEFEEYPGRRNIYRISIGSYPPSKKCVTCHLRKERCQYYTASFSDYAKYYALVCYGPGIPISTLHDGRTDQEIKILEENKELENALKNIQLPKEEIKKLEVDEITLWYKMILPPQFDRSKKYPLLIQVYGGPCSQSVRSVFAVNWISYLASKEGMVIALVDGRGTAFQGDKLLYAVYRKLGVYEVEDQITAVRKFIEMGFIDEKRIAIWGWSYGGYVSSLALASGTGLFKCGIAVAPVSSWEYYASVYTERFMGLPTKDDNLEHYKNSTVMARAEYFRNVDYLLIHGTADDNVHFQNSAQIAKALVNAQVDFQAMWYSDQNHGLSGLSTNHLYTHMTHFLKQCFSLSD

`CCCCCC(=O)N[C@H]1CSC2=C(SC[C@@H](C(=O)N[C@@H](CC(=O)O)C(N)=O)NC(=O)[C@H](Cc3ccccc3)NC(=O)[C@H](CCC(N)=O)NC(=O)[C@H]([C@@H](C)O)NC(=O)[C@@H]3CCCN3C(=O)[C@@H]3CCCN3C1=O)C(=O)N(CCCOCCOCCOCCCNC(=O)CN1CCN(CC(=O)O)CCN(CC(=O)O)CCN(CC(=O)O)CC1)C2=O` [Compound 2017, Hex-[Cys(mli(DOTA-Ttd))-Pro-Pro-Thr-Gln-Phe-Cys]-Asp-NH2] (HELM PEPTIDE1{[CCCCCC(=O)[*:2]].C.P.P.T.Q.F.C.D.[am]}|CHEM1{[O=C(O)CN1CCN(CC(=O)O)CCN(CC(=O)NCCCOCCOCCOCCCN2C(=O)C([*:1])=C([*:2])C2=O)CCN(CC(=O)O)CC1]}$PEPTIDE1,CHEM1,2:R3-1:R1|PEPTIDE1,CHEM1,8:R3-1:R2$$$V2.0) was tested, and the pIC50 (Recombinant human FAP) was > 7.00 and the pIC50 [1] was > 7.00.

`CCCCCC(=O)N[C@H]1CSC2=C(SC[C@@H](C(=O)N[C@@H](CC(=O)O)C(N)=O)NC(=O)[C@H](Cc3ccccc3)NC(=O)[C@H](CCC(N)=O)NC(=O)[C@H]([C@@H](C)O)NC(=O)[C@@H]3CCCN3C(=O)[C@@H]3CCCN3C1=O)C(=O)N(CCCC(=O)CN1CCN(CC(=O)O)CCN(CC(=O)O)CCN(CC(=O)O)CC1)C2=O` [Compound 2018, Hex-[Cys(mli(DOTA-Eda))-Pro-Pro-Thr-Gln-Phe-Cys]-Asp-NH2] (HELM PEPTIDE1{[CCCCCC(=O)[*:2]].C.P.P.T.Q.F.C.D.[am]}|CHEM1{[O=C(O)CN1CCN(CC(=O)O)CCN(CC(=O)CCCN2C(=O)C([*:1])=C([*:2])C2=O)CCN(CC(=O)O)CC1]}$PEPTIDE1,CHEM1,2:R3-1:R1|PEPTIDE1,CHEM1,8:R3-1:R2$$$V2.0) was tested, and the pIC50 (Recombinant human FAP) was > 7.00 and the pIC50 [1] was > 7.00.

In the case of `CCCCCC(=O)N[C@H]1CSC2=C(SC[C@@H](C(=O)O)NC(=O)[C@H](Cc3ccccc3)NC(=O)[C@H](CCC(N)=O)NC(=O)[C@H]([C@@H](C)O)NC(=O)[C@@H]3CCCN3C(=O)[C@@H]3CCCN3C1=O)C(=O)N(CCCOCCOCCOCCCNC(=O)CN1CCN(CC(=O)O)CCN(CC(=O)O)CCN(CC(=O)O)CC1)C2=O` [Compound 2019, Hex-[Cys(mli(DOTA-Ttd))-Pro-Pro-Thr-Gln-Phe-Cys]-OH], the IC50 (Recombinant human FAP) was < 100 nM and the IC50 [1] was < 100 nM.

In the case of `CCCCCC(=O)N[C@H]1CSC2=C(SC[C@@H](C(=O)N[C@@H](CC(=O)O)C(N)=O)NC(=O)[C@H](Cc3ccccc3)NC(=O)[C@H](CCC(=O)O)NC(=O)[C@H]([C@@H](C)O)NC(=O)[C@@H]3CCCN3C(=O)[C@@H]3CCCN3C1=O)C(=O)N(CCCOCCOCCOCCCNC(=O)CN1CCN(CC(=O)O)CCN(CC(=O)O)CCN(CC(=O)O)CC1)C2=O` [Compound 2020, Hex-[Cys(mli(DOTA-Ttd))-Pro-Pro-Thr-Glu-Phe-Cys]-Asp-NH2] (HELM PEPTIDE1{[CCCCCC(=O)[*:2]].C.P.P.T.E.F.C.D.[am]}|CHEM1{[O=C(O)CN1CCN(CC(=O)O)CCN(CC(=O)NCCCOCCOCCOCCCN2C(=O)C([*:1])=C([*:2])C2=O)CCN(CC(=O)O)CC1]}$PEPTIDE1,CHEM1,2:R3-1:R1|PEPTIDE1,CHEM1,8:R3-1:R2$$$V2.0), the IC50 (Recombinant human FAP) was < 100 nM and the IC50 [1] was < 100 nM.

`CCCC[C@H](NC(=O)CCC(=O)NCCCOCCOCCOCCCNC(=O)CC[C@H](C(=O)O)N1CCN(CC(=O)O)CCN(CC(=O)O)CC1)C(=O)N[C@H]1CSC2=C(SC[C@@H](C(=O)NCCC(=O)O)NC(=O)[C@H](Cc3ccccc3)NC(=O)[C@H](CCC(N)=O)NC(=O)[C@H]([C@@H](C)O)NC(=O)[C@@H]3CCCN3C(=O)[C@@H]3CCCN3C1=O)C(=O)NC2=O` [Compound 2021, NODAGA-Ttds-Nle-[Cys(mli)-Pro-Pro-Thr-Gln-Phe-Cys]-Bal-OH] was tested, and the IC50 (Recombinant human FAP) was < 100 nM and the IC50 [1] was < 100 nM.

For `CCCC[C@H](NC(=O)CCC(=O)NCCCOCCOCCOCCCNC(=O)C(CNCCN)CNCCN)C(=O)N[C@H]1CSC2=C(SC[C@@H](C(=O)NCCC(=O)O)NC(=O)[C@H](Cc3ccccc3)NC(=O)[C@H](CCC(N)=O)NC(=O)[C@H]([C@@H](C)O)NC(=O)[C@@H]3CCCN3C(=O)[C@@H]3CCCN3C1=O)C(=O)NC2=O` [Compound 2022, N4Ac-Ttds-Nle-[Cys(mli)-Pro-Pro-Thr-Gln-Phe-Cys]-Bal-OH], the IC50 (Recombinant human FAP) was < 100 nM and the IC50 [1] was < 100 nM.

`CCCCCC(=O)N[C@H]1CSC2=C(CC[C@@H](C(=O)N[C@@H](CC(=O)O)C(=O)N[C@@H](CCCCNC(=O)CC[C@H](C(=O)O)N3CCN(CC(=O)O)CCN(CC(=O)O)CC3)C(N)=O)NC(=O)[C@H](Cc3ccccc3)NC(=O)[C@H](CCC(N)=O)NC(=O)[C@H]([C@@H](C)O)NC(=O)[C@@H]3CCCN3C(=O)[C@@H]3CCCN3C1=O)C(=O)NC2=O` [Compound 2023, Hex-[Cys(mli)-Pro-Pro-Thr-Gln-Phe-Cys]-Asp-Lys(NODAGA)-NH2] (Hexanoyl-CPPTQF[X2]DK(X11)-NH2; thioether 1-7) was tested, and the IC50 (Recombinant human FAP) was < 100 nM and the IC50 [1] was < 100 nM.

For `CCCCCC(=O)N[C@H]1CSC2=C(CC[C@@H](C(=O)N[C@@H](CC(=O)O)C(=O)N[C@@H](CCCCNC(=O)C(CNCCN)CNCCN)C(N)=O)NC(=O)[C@H](Cc3ccccc3)NC(=O)[C@H](CCC(N)=O)NC(=O)[C@H]([C@@H](C)O)NC(=O)[C@@H]3CCCN3C(=O)[C@@H]3CCCN3C1=O)C(=O)NC2=O` [Compound 2024, Hex-[Cys(mli)-Pro-Pro-Thr-Gln-Phe-Cys]-Asp-Lys(N4Ac)-NH2] (Hexanoyl-CPPTQF[X2]DK(X3)-NH2; thioether 1-7), the IC50 (Recombinant human FAP) was < 100 nM and the IC50 [1] was < 100 nM.

In the case of `CCCCCC(=O)N[C@H]1CSC2=C(SC[C@@H](C(=O)N[C@@H](CC(=O)O)C(N)=O)NC(=O)[C@H](Cc3ccccc3)NC(=O)[C@H](CCC(N)=O)NC(=O)[C@H]([C@@H](C)O)NC(=O)[C@@H]3CCCN3C(=O)[C@@H]3CCCN3C1=O)C(=O)N(CCCOCCOCCOCCCNC(=O)C(CNCCN)CNCCN)C2=O` [Compound 2026, Hex-[Cys(mli(N4Ac-Ttd))-Pro-Pro-Thr-Gln-Phe-Cys]-Asp-NH2] (HELM PEPTIDE1{[CCCCCC(=O)[*:2]].C.P.P.T.Q.F.C.D.[am]}|CHEM1{[NCCNCC(CNCCN)C(=O)NCCCOCCOCCOCCCN1C(=O)C([*:1])=C([*:2])C1=O]}$PEPTIDE1,CHEM1,2:R3-1:R1|PEPTIDE1,CHEM1,8:R3-1:R2$$$V2.0), the pIC50 (Recombinant human FAP) was > 7.00 and the pIC50 [1] was > 7.00.
